Source: patent US11746100B2 (GLOBAL BLOOD THERAPEUTICS, INC., priority 2020, dated 2023)

The compounds below were run against T1, human ferroportin (Homo sapiens, UniProt Q9NP59) (assay: Biological in-vitro ferroportin internalization assay (luciferase reporter)). Settings: average pEC50; stably-transfected CHO cell line expressing human ferroportin tagged to a luciferase reporter; 6 h incubation with test compound.
T1 construct: luciferase reporter (read with the Nano-Glo Luciferase Assay System); expressed in transfected cells; host or cells: CHO cells, stably transfected, expression induced with doxycycline
T1 sequence (Q9NP59 1-571): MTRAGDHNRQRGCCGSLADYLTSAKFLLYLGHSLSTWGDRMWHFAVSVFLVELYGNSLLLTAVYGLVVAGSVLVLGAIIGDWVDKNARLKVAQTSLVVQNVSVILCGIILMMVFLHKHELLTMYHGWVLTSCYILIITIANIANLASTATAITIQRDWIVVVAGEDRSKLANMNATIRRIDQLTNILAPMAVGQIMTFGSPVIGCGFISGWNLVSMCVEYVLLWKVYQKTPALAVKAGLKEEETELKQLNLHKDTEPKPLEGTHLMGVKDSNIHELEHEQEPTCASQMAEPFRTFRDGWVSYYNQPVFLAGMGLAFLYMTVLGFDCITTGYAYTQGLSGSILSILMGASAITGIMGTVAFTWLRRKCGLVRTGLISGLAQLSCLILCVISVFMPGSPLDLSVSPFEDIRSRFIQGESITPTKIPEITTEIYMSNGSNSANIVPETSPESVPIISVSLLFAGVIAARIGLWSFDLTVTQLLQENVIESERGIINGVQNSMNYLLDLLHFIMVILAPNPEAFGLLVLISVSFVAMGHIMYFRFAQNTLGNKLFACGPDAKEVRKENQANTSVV
Type: cell-based
Summary of the method: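 Read-out is Nano-Glo luciferase signal after 6 h compound exposure, with average pEC50 derived. Cells are a stable CHO line carrying luciferase-tagged human ferroportin, pre-loaded 24 h with ferric ammonium citrate and doxycycline-induced for 24 h.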

Row | SMILES | pEC50
1 | CC(C)[C@H](O)COc1ccnc(-c2nc3c(c(N(C)CC(=O)NC(C)(C)C)n2)CCC3)c1 [Compound 386, N-tert-butyl-2-[(2-{4-[(2S)-2-hydroxy-3-methylbutoxy]pyridin-2-yl}-5H,6H,7H-cyclopenta[d]pyrimidin-4-yl)(methyl)amino]acetamide] | 8.4
2 | CN1CC[C@H](Oc2ccnc(-c3nc4c(c(N(C)CC(=O)NC(C)(C)C)n3)CCC4)c2)C1 [Compound 438, N-tert-butyl-2-{methyl[2-(4-{[(3S)-1-methylpyrrolidin-3-yl]oxy}pyridin-2-yl)-5H,6H,7H-cyclopenta[d]pyrimidin-4-yl]amino}acetamide] | 7.7
3 | CN(CC(=O)NC(C)(C)C)c1nc(-c2cc(OCCN3CCOCC3)ccn2)nc2c1CCC2 [Compound 460, N-tert-butyl-2-[methyl(2-{4-[2-(morpholin-4-yl)ethoxy]pyridin-2-yl}-5H,6H,7H-cyclopenta[d]pyrimidin-4-yl)amino]acetamide] | 8.2
4 | CN(CC(=O)Nc1ccc(F)nc1)c1nc(-c2cc3cn[nH]c3cn2)nc2c1CCC2 [Compound 266, N-(6-fluoropyridin-3-yl)-2-[methyl(2-{1H-pyrazolo[3,4-c]pyridin-5-yl}-5H,6H,7H-cyclopenta[d]pyrimidin-4-yl)amino]acetamide] | 7.3
5 | CN(CC(=O)Nc1ccc(F)cc1)c1nc(-c2cc(OCCO)ccn2)nc2c1CCC2 [Compound 198, N-(4-fluorophenyl)-2-({2-[4-(2-hydroxyethoxy)pyridin-2-yl]-5H,6H,7H-cyclopenta[d]pyrimidin-4-yl}(methyl)amino)acetamide] | 8.1
6 | COc1ccc(NC(=O)CN(C)c2nc(-c3cc(OCCN(C)C)ccn3)nc3c2CCC3)cn1 [Compound 344, 2-[(2-{4-[2-(dimethylamino)ethoxy]pyridin-2-yl}-5H,6H,7H-cyclopenta[d]pyrimidin-4-yl)(methyl)amino]-N-(6-methoxypyridin-3-yl)acetamide] | 7.6
7 | CN(C)CCOc1ccnc(-c2nc3c(c(N(C)CC(=O)Nc4cnn(C5CC5)c4)n2)CCC3)c1 [Compound 410, N-(1-cyclopropyl-1H-pyrazol-4-yl)-2-[(2-{4-[2-(dimethylamino)ethoxy]pyridin-2-yl}-5H,6H,7H-cyclopenta[d]pyrimidin-4-yl)(methyl)amino]acetamide] | 7.3
8 | COc1ccc(NC(=O)CN(C)c2nc(-c3cc(OCCO)ccn3)nc3c2CCC3)cn1 [Compound 187, 2-({2-[4-(2-hydroxyethoxy)pyridin-2-yl]-5H,6H,7H-cyclopenta[d]pyrimidin-4-yl}(methyl)amino)-N-(6-methoxypyridin-3-yl)acetamide] | 7.9
9 | COc1ccnc(-c2nc3c(c(N(C)CC(=O)N[C@@H]4CCC[C@@H]4O)n2)CCC3)c1 (relative stereo) [Compound 170, N-[(1R,2S)-2-hydroxycyclopentyl]-2-{[2-(4-methoxypyridin-2-yl)-5H,6H,7H-cyclopenta[d]pyrimidin-4-yl](methyl)amino}acetamide] | 7.8
10 | COc1ccc(NC(=O)CN(C)c2nc(-c3cc(OC(F)F)ccn3)nc3c2CCC3)nc1 [Compound 217, 2-({2-[4-(difluoromethoxy)pyridin-2-yl]-5H,6H,7H-cyclopenta[d]pyrimidin-4-yl}(methyl)amino)-N-(5-methoxypyridin-2-yl)acetamide] | 6.9
11 | CN(CC(=O)Nc1cnn(C)c1)c1nc(-c2cn(C)cn2)nc2c1CCC2 [Compound 220, N-(1-methyl-1H-pyrazol-4-yl)-2-{methyl[2-(1-methyl-1H-imidazol-4-yl)-5H,6H,7H-cyclopenta[d]pyrimidin-4-yl]amino}acetamide] | 7
12 | CCNC(=O)CN(C)c1nc(-c2cc(OCC(O)(CC)CC)ccn2)nc2c1CCC2 [Compound 442, N-ethyl-2-({2-[4-(2-ethyl-2-hydroxybutoxy)pyridin-2-yl]-5H,6H,7H-cyclopenta[d]pyrimidin-4-yl}(methyl)amino)acetamide] | 8
13 | CN(CC(=O)NC(C)(C)C)c1nc(-c2cc(OCC3(O)CCCC3)ccn2)nc2c1CCC2 [Compound 381, N-tert-butyl-2-[(2-{4-[(1-hydroxycyclopentyl)methoxy]pyridin-2-yl}-5H,6H,7H-cyclopenta[d]pyrimidin-4-yl)(methyl)amino]acetamide] | 8.3
14 | CN(CC(=O)NC(C)(C)C)c1nc(-c2cc(O[C@@H]3CCOC3)ccn2)nc2c1CCC2 [Compound 318, N-tert-butyl-2-[methyl(2-{4-[(3R)-oxolan-3-yloxy]pyridin-2-yl}-5H,6H,7H-cyclopenta[d]pyrimidin-4-yl)amino]acetamide] | 7.9
15 | CN(c1nc(-c2ccccn2)nc2c1CCC2)[C@H](CO)C(=O)NC(C)(C)C [Compound 124, (2R)—N-tert-butyl-3-hydroxy-2-{methyl[2-(pyridin-2-yl)-5H,6H,7H-cyclopenta[d]pyrimidin-4-yl]amino}propanamide] | 7
16 | CC(C(=O)NC(C)(C)C)N(C)c1nc(-c2ccccn2)nc2c1CCC2 (centres unmarked) [Compound 90, N-tert-butyl-2-{methyl[2-(pyridin-2-yl)-5H,6H,7H-cyclopenta[d]pyrimidin-4-yl]amino}propanamide] | 7.4
17 | COc1cnc(NC(=O)CN(C)c2nc(-c3cc(OCCO)ccn3)nc3c2CCC3)nc1 [Compound 295, 2-({2-[4-(2-hydroxyethoxy)pyridin-2-yl]-5H,6H,7H-cyclopenta[d]pyrimidin-4-yl}(methyl)amino)-N-(5-methoxypyrimidin-2-yl)acetamide] | 7
18 | CN(CC(=O)NCC(F)(F)F)c1nc(-c2cc(OCC(C)(C)O)ccn2)nc2c1CCC2 [Compound 479, 2-({2-[4-(2-hydroxy-2-methylpropoxy)pyridin-2-yl]-5H,6H,7H-cyclopenta[d]pyrimidin-4-yl}(methyl)amino)-N-(2,2,2-trifluoroethyl)acetamide] | 7.9
19 | CN(CC(=O)NC(C)(C)C)c1nc(-c2cc(OCCN)ccn2)nc2c1CCC2 [Compound 483, 2-({2-[4-(2-aminoethoxy)pyridin-2-yl]-5H,6H,7H-cyclopenta[d]pyrimidin-4-yl}(methyl)amino)-N-tert-butylacetamide] | 7.2
20 | CCOc1ccnc(-c2nc3c(c(N(C)CC(=O)NC(C)(C)C)n2)CCC3)c1 [Compound 467, N-tert-butyl-2-{[2-(4-ethoxypyridin-2-yl)-5H,6H,7H-cyclopenta[d]pyrimidin-4-yl](methyl)amino}acetamide] | 8.3
21 | CN(CC(=O)Nc1cccc(F)c1)c1nc(-c2cc(OCCO)ccn2)nc2c1CCC2 [Compound 167, N-(3-fluorophenyl)-2-({2-[4-(2-hydroxyethoxy)pyridin-2-yl]-5H,6H,7H-cyclopenta[d]pyrimidin-4-yl}(methyl)amino)acetamide] | 7.9
22 | CC[C@H](O)COc1ccnc(-c2nc3c(c(N(C)CC(=O)NC(C)(C)C)n2)CCC3)c1 [Compound 394, (S)—N-(tert-butyl)-2-((2-(4-(2-hydroxybutoxy)pyridin-2-yl)-6,7-dihydro-5H-cyclopenta[d]pyrimidin-4-yl)(methyl)amino)acetamide] | 8.3
23 | CC(C(=O)NC(C)(C)C)N(c1ccccc1)c1nc(-c2ccccn2)nc2c1CCC2 (centres unmarked) [Compound 20, N-tert-butyl-2-{phenyl[2-(pyridin-2-yl)-5H,6H,7H-cyclopenta[d]pyrimidin-4-yl]amino}propanamide] | 6.7
24 | CN(CC(=O)NC(C)(C)C)c1nc(-c2cc(O)ccn2)nc2c1CCC2 [Compound 482, N-tert-butyl-2-{[2-(4-hydroxypyridin-2-yl)-5H,6H,7H-cyclopenta[d]pyrimidin-4-yl](methyl)amino}acetamide] | 6.1
25 | CCN(CC(=O)NC(C)(C)C)c1nc(-c2ccccn2)nc2c1CCC2 [Compound 36, N-tert-butyl-2-{ethyl[2-(pyridin-2-yl)-5H,6H,7H-cyclopenta[d]pyrimidin-4-yl]amino}acetamide] | 7.3
26 | COc1ccc2c(c1)CCN2C(=O)CN(C)c1nc(-c2cc(OCCO)ccn2)nc2c1CCC2 [Compound 335, 2-({2-[4-(2-hydroxyethoxy)pyridin-2-yl]-5H,6H,7H-cyclopenta[d]pyrimidin-4-yl}(methyl)amino)-1-(5-methoxy-2,3-dihydro-1H-indol-1-yl)ethan-1-one] | 8.4
27 | COc1ccnc(-c2nc3c(c(N(C)CC(=O)N[C@H]4CCC[C@@H]4O)n2)CCC3)c1 (stereo in doubt) [Compound 173, N-[(1S,2S)-2-hydroxycyclopentyl]-2-{[2-(4-methoxypyridin-2-yl)-5H,6H,7H-cyclopenta[d]pyrimidin-4-yl](methyl)amino}acetamide] | 6.8
28 | CN(Cc1ccccn1)c1nc(-c2ccccn2)nc2c1CCC2 [Compound 73, N-methyl-2-(pyridin-2-yl)-N-[(pyridin-2-yl)methyl]-5H,6H,7H-cyclopenta[d]pyrimidin-4-amine] | 6.8
29 | CN(CCOc1ccccc1)c1nc(-c2ccccn2)nc2c1CCC2 [Compound 87, N-methyl-N-(2-phenoxyethyl)-2-(pyridin-2-yl)-5H,6H,7H-cyclopenta[d]pyrimidin-4-amine] | 6.6
